# Entries after “also recorded” stand apart in the source; their conditions may differ.
# Assays:
# [1] = test system: FOCM/TS metabolic profiles of individuals with ASD; experiment: FDA model evaluation of clinical trial treatment data (Type II error and discriminant score shift); assay type: in vivo, children; conditions: for Post-treatment Type II Error: PDF of post-treatment discriminant scores with respect to H0, 12 weeks (BH4: average of 8 and 16 weeks); for change in Type II error / correction of metabolic abnormalities (in words): comparison among treatments; for Effect Size (95% CI): median paired pre-to-post-treatment change in discriminant score, CI by bootstrap, 10,000 replications; for Change in Type II Error: pre- to post-treatment, with respect to H0
# Experimental: MeCbl+LDFA Treatment Data. Subcutaneously injected MeCbl (75 μg/kg, once every three days) in combination with oral LDFA (400 μg, twice per day) was given to children with autism in a 12-week open-label trial. Included children were aged 2 to 7 years and met the diagnostic criteria for autism as defined by the DSM-IV in addition to having a Childhood Autism Rating Scales score greater than 30. Boys and girls made up 82% and 18% of participants in this study, respectively. The IRB at the University of Arkansas for Medical Sciences approved the protocol for this study.
# BH4 Treatment Data. A 16-week open-label trial investigated the effects of orally administered BH4 (20 mg/kg, once per day) in children aged 2 to 6 years old with a previous diagnosis of ASD that was confirmed at the time of evaluation with DSM-IV criteria. […] Study participants were 90% males. Approval for this study was given by the IRB at the University of Texas Health Science Center at Houston, Tex. FOCM/TS markers were measured at 8 and 16 weeks following the onset of treatment in this trial; to maintain consistency with the other trials where markers were measured after 12 weeks, the averages of the measurements taken at 8 and 16 weeks were used.
# HDFA Treatment Data. A double-blind placebo-controlled trial of HDFA (2 mg/kg per day up to a maximum of 50 mg daily, given orally) was administered over 12 weeks to children between 3 and 14 years of age. ASD diagnoses were made using the Autism Diagnostic Observation Schedule and/or Autism Diagnostic Interview—Revised, or by agreement between physician, psychologist, and speech therapist, or by a physician's diagnosis according to the Diagnostic and Statistical Manual of Mental Disorders, Fifth Edition with later confirmation by the investigators. All children were required to have documented language impairment. 78% of the treatment group were male while 80% of the placebo group were male. The protocol was approved by the IRB at the University of Arkansas for Medical Sciences. All data for participants receiving a placebo in the current analysis were provided.
# Biochemical Measurements. Concentrations and ratios of metabolites in the FOCM and TS pathways were measured in each of the above studies, with fifteen measurements appearing in all four data sets. Six of these measures were associated with DNA methylation: methionine, S-adenosylmethionine (SAM), S-adenosylhomocysteine (SAH), the SAM/SAH ratio (an indicator of DNA methylation capacity), homocysteine, and adenosine. The remaining nine measures were precursors of glutathione or markers of redox metabolism: total cysteine, glutamylcysteine (Glu-Cys), cysteinylglycine (Cys-Gly), total and free reduced glutathione (tGSH and fGSH, respectively), oxidized glutathione (GSSG), the ratios of total and free reduced glutathione to oxidized glutathione (tGSH/GSSG and fGSH/GSSG, respectively; these are indicators of intracellular oxidative stress), and percent oxidized glutathione (a derived measure calculated as 2GSSG/[GSH+2GSSG]).
# Fisher Discriminant Analysis. Individuals of the IMAGE study were separated into ASD and TD cohorts using Fisher discriminant analysis (FDA). FDA used the data matrix X of size n×m as input, where n study participants are each defined by m biochemical measurements. Sample information for study participant i was contained in row vector xi (size 1×m) and that participant's value for measurement j is indicated by xi,j. The input matrix X were considered as two matrices XASD and XTD taken to represent the separate samples for the ASD and TD cohorts, respectively, with XASD composed of nASD samples and XTD having nTD samples. […]
# ASD-related symptoms = conditions: cited from earlier work
Compound,Post-treatment Type II Error [1] [%],95% CI for the effect size relative to zero (in words) ([1]; bootstrap 95% CI of median change in discriminant score),change in Type II error / correction of metabolic abnormalities (in words) [1],Effect Size (95% CI) [1],Change in Type II Error [1],"outcome of treatment (cerebrospinal fluid, symptoms and behavior) (ASD-related symptoms; ASD)",outcome of open-label and double-blind placebo-controlled studies (ASD-related symptoms; children with ASD)
"Nc1nc(=O)c2c([nH]1)NCC(CNc1ccc(C(=O)N[C@@H](CCC(=O)O)C(=O)O)cc1)N2C=O (mixture of isomers) [HDFA, high-dose folinic acid]",49.5,contained zero,relatively small increase in Type II error,0.17,+17.2%,,
"Nc1nc(=O)c2c([nH]1)NCC(CNc1ccc(C(=O)N[C@@H](CCC(=O)O)C(=O)O)cc1)N2C=O (mixture of isomers) [folinic acid, Folinic acid]",,,,,,correct certain abnormalities of the cerebrospinal fluid and improve ASD-related symptoms and behavior,
"C[C@H](O)[C@H](O)[C@H]1CNc2nc(N)[nH]c(=O)c2N1 [BH4, tetrahydrobiopterin]",41.1,,,0.73,+40.8%,,
"C/C1=C2/[N-][C@H]([C@H](CC(N)=O)[C@@]2(C)CCC(=O)NC[C@@H](C)OP(=O)([O-])O[C@H]2[C@@H](O)[C@@H](n3cnc4cc(C)c(C)cc43)O[C@@H]2CO)[C@]2(C)N=C(/C(C)=C3N=C(/C=C4N=C1[C@@H](CCC(N)=O)C\4(C)C)[C@@H](CCC(N)=O)[C@]\3(C)CC(N)=O)[C@@H](CCC(N)=O)[C@]2(C)CC(N)=O.[CH3-].[Co+3] [MeCbl, methylcobalamin]",,,,,,,improvement in metabolism and ASD-related symptoms
methylcobalamin (MeCbl) in combination with low-dose folinic acid (LDFA) [MeCbl + LDFA],43.6,,greatest correction in ASD-related metabolic abnormalities; also recorded: largest increase in Type II error,0.89,+41.9%,,

# From patent US11699530B2, “Use of multivariate analysis to assess treatment approaches” (RENSSELAER POLYTECHNIC INSTITUTE, priority 2018, dated 2023)
